As a reminder, the GI50 is the concentration at which growth is held to half of that of the control.

Holding throughout (experiment): DTP human tumour cell line panel, 48 h
For assay [1], the system named is EKVX.
The test system of assay [2] is HCC 2998.
Assay [3] has as its system HCT-116.
Assay [4] relates to HOP-92.
In assay [5] the test system is HT-29.
Assay [6] relates to IGROV-1.
The test system of assay [7] is KM12.
Assay [8] concerns LOX IMVI.
The test system of assay [9] is MOLT-4.
The subject of assay [10] is Malme-3M.
For assay [11], the system named is NCI-H23.
Assay [12] has as its system OVCAR-8.
In assay [13] the test system is SF-268.
In assay [14] the test system is SF-295.
Assay [15] deals with SF-539.
Assay [16] concerns SK-MEL-5.
Assay [17] relates to SN12C.
In assay [18] the test system is SW-620.
The subject of assay [19] is SNB-19.
Assay [20] relates to NCI-H522.

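Method: 48-hour compound exposure of cells in 96-well plates, five concentrations, linear interpolation of endpoints. At the GI50, growth is halved.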 Active and inactive are the calls of the source. Cut-off read from the data, not from the text of the source: active = GI50 up to about 1.1 µM and inactive = higher.

For `CC1(C)CC2C(C1=O)C1(C)CCCC2(C)C1=O` (configuration not stated), the GI50 in assay [1], in assay [2], in assay [3], in assay [4], in assay [5] and in assay [6] was > 100 µM (inactive) throughout. Also, the GI50 in assay [7], in assay [8], in assay [9], in assay [10], in assay [11] and in assay [12] was > 100 µM (inactive) throughout. For the same compound, the GI50 in [13], in [14], in [15], in assay [16], in assay [17] and in assay [18] was > 100 µM (inactive) each time.
With `O=[N+]([O-])c1ccc(CNC2=NNS(=O)(=O)c3ccccc32)cc1`, the GI50 in assay [1], in assay [2], in assay [3], in assay [4], in [5] and in [6] was > 100 µM (inactive) each time. The GI50 in assay [7] was > 100 µM (inactive); in assay [8] it was 54 µM (inactive); in assay [9] it was 22.3 µM (inactive); in assay [10] it was > 100 µM (inactive); in [12] it was > 100 µM (inactive); in assay [13], > 100 µM (inactive). In addition, the GI50 in assay [14], in assay [15], in [16], in assay [17], in assay [19] and in assay [18] was > 100 µM (inactive) in each case.
As for `Cc1nc(Nc2nnc(-c3cc([N+](=O)[O-])cc([N+](=O)[O-])c3C)o2)sc1C(=O)CC(=O)Cc1nc2ccc(Cl)cc2nc1O`, the GI50 is 37.3 µM (inactive) in assay [1]; > 100 µM (inactive) in assay [2]; > 100 µM (inactive) in assay [3]; > 100 µM (inactive) in [4]; > 100 µM (inactive) in [5]; > 100 µM (inactive) in [6]. The GI50 was > 100 µM (inactive) in [7]; > 100 µM (inactive) in assay [8]; > 100 µM (inactive) in assay [9]; > 100 µM (inactive) in assay [11]; 61.4 µM (inactive) in assay [20]; > 100 µM (inactive) in assay [12]. Further, the GI50 in assay [13], in assay [14], in assay [15], in [16], in assay [17] and in assay [19] was > 100 µM (inactive) throughout. Also, the GI50 in assay [18] is > 100 µM (inactive).
Regarding `CN(C)C(=S)/N=C1\SC(=N\c2ccccc2)/C(=N/c2ccccc2)N1c1ccc([N+](=O)[O-])cc1`, the GI50 in [2], in assay [3], in assay [4], in assay [5], in assay [6] and in [7] was > 100 µM (inactive) each time. Moreover, the GI50 was 38.5 µM (inactive) in assay [9]; > 100 µM (inactive) in assay [10]; > 100 µM (inactive) in [11]; > 100 µM (inactive) in assay [20]; > 100 µM (inactive) in assay [12]; > 100 µM (inactive) in assay [14]. Besides, the GI50 in assay [16], in assay [17] and in assay [19] was > 100 µM (inactive) each time.
On to `CN(C)C(=S)/N=c1\ss/c(=N\C(=S)N(C)C)n1C1CCCCC1`, for which the GI50 in assay [1] is > 100 µM (inactive); in [2], > 100 µM (inactive); in assay [3], > 100 µM (inactive); in assay [5], 0.458 µM (active); in assay [6], > 100 µM (inactive); in assay [7], > 100 µM (inactive). In addition, the GI50 is 86.3 µM (inactive) in [8]; 80.2 µM (inactive) in assay [9]; > 100 µM (inactive) in assay [10]; 63.2 µM (inactive) in [11]; 25.5 µM (inactive) in assay [20]; 84.3 µM (inactive) in [12]. The GI50 in assay [13] is 44.9 µM (inactive); in assay [14] it was > 100 µM (inactive); in assay [15] it was > 100 µM (inactive); in assay [16], 2.29 µM (inactive); in assay [17] it was > 100 µM (inactive); in [19] it was 22 µM (inactive). The GI50 in [18] is > 100 µM (inactive).
`Cn1c2c(c3ccccc31)CCN(CCCN1CCN(c3ccccc3)CC1)C2=O`: the GI50 in assay [1] was 26.7 µM (inactive); in assay [3], 16.1 µM (inactive); in [4] it was 15.7 µM (inactive); in assay [5] it was 13.8 µM (inactive); in [6] it was 20.8 µM (inactive); in [8], 22.9 µM (inactive). In addition, the GI50 was 13.3 µM (inactive) in assay [9]; 20.5 µM (inactive) in assay [11]; 14.3 µM (inactive) in assay [20]; 21.6 µM (inactive) in assay [12]; 25.7 µM (inactive) in [13]; 23.1 µM (inactive) in assay [14]. Besides, the GI50 in [15] is 17.6 µM (inactive); in assay [16], 18.9 µM (inactive); in assay [17], 20.6 µM (inactive); in assay [18] it was 22.1 µM (inactive).
As to `NC(CSC(=O)c1ccccc1)C(=O)O` (configuration not stated), the GI50 in assay [1], in assay [3], in [4], in assay [5], in assay [6] and in assay [7] was > 100 µM (inactive) in each case. In addition, the GI50 in [8], in assay [9], in assay [10], in assay [11], in assay [20] and in assay [12] was > 100 µM (inactive) throughout. Also, the GI50 in [13], in assay [14], in [15], in assay [16], in assay [17] and in assay [19] was > 100 µM (inactive) each time. In assay [18], the GI50 was > 100 µM (inactive).
`O=C1C=C2SC3C[C@@]24CC1(O)[N+]1=c2c4c(c(O)c4c2=C(C=N4)CC1)N3`: the GI50 in assay [1] was 4.13 µM (inactive); in [3], 0.217 µM (active); in assay [4], 1.35 µM (inactive); in assay [5] it was 0.299 µM (active); in [6], 1.57 µM (inactive); in assay [7], 1.53 µM (inactive). In addition, the concentration for 50% growth inhibition (GI50) in [8] is 0.546 µM (active); in [9], 0.268 µM (active); in [11], 1.3 µM (inactive); in assay [20], 0.296 µM (active); in assay [12] it was 0.33 µM (active); in assay [13], 1.01 µM (active). In addition, the GI50 in assay [14] was 1.58 µM (inactive); in assay [15], 1.51 µM (inactive); in [16], 1.5 µM (inactive); in [17], 1.22 µM (inactive); in assay [19], 1.74 µM (inactive); in assay [18] it was 0.33 µM (active).
